We go through five compounds from PMC3319558, “Functional Correlates of Positional and Gender-Specific Renal Asymmetry in Drosophila” (PLoS ONE, 2012).

One assay concerns male Malpighian tubules. The settings on record: 3 h.
For a further assay, the system named is male tubules. Briefly: Tubule fluid secretion assay. On the set-up: species or system Drosophila melanogaster. The note with it: sNPF 10^−7 M added at 30 min, average rates before vs after addition, *** Student's t-test, two tailed, P<0.05, N = 10 tubules (typical trace). The method, then: (§1) Classical fluid secretion assays were performed as previously described by Dow et al.. Briefly, basal fluid secretion rates of the dissected live tubules were established for 30 min after which the required concentrations of peptides were added and secretion was measured for a further 70 min. The rates of secretion (in nl/min) were represented as the mean (±SEM) of approximately 30–35 tubules coming from 3 independent biological replicates.
(§2) sNPF (AQRSPSLRLRF-NH2) and MIP (AWQSLQSSW-NH2) peptides were synthesised by Biomatik, USA with a purity of greater than 98%. NPF ([…]-NH2) peptide was a kind gift from Professor Ian Orchard (University of Toronto Mississauga). According to the peptide profiles generated by peptide profile calculator (Gene Script, UK), they were dissolved first in water to produce a stock solution of 10 mM and subsequently diluted in the Schneider’s medium to get required final concentrations.

In another assay the test system is female tubules. Briefly: Tubule fluid secretion assay. Further details: species or system Drosophila melanogaster. The settings on record: sNPF 10^−7 M added at 30 min, average rates before vs after addition. How it is done: as §1, §2
A further assay has as its system Drosophila SPR. The settings on record: more sensitive to MIP than to SP itself; ref [59]; cited from earlier work. From the text: (§3) Intriguingly, two well-known receptors (for sex peptide and neuropeptide F) are prominently male-enriched (Supporting information S1). Their spatial expression patterns are presented along with their peptide ligands in Supporting information S1. Sex peptide receptor (SPR) is 6.6x male-enriched.

The next assay has as its system female. The note with it: transferred with the sperm to the female; ref [58]; cited from earlier work.
Excerpt: as §3

For a further assay, the system named is right and left tubules. The settings on record: right v. left tubules; chloride conductance under control of leucokinin through intracellular calcium; ref [48], [49]; cited from earlier work. From the text:
Bestrophin 2 encodes (of four Drosophila bestrophins) the most closely related to human bestrophin 1, a calcium- and volume-activated chloride channel of retinal pigmented epithelial cells, which is mutated in Best’s macular dystrophy, [44]. However, Bestrophins play wider roles: they are implicated in epithelial-to-mesenchymal transitions in human kidney, and in olfactory transduction. In Drosophila, Best1 also mediates a calcium and volume activated chloride current. FlyAtlas reports that, although expressed in eye, Best2 is abundant in epithelia; in adult tubul ...
In general terms: Calcium assays in cells follow changes in intracellular calcium, usually with a dye or a luminescent sensor.

Entries after “also recorded” stand apart in the source; their conditions may differ. Ends that are not written are not given here. Peptide text beside a SMILES is read from it.

Description for male Malpighian tubules: Cytosolic [Ca^2+]cyto or peroxisomal [Ca^2+]perox calcium was measured in tubules expressing transgenic aequorin according to published protocols [88], [89]. Briefly, the tubules were dissected, incubated at room temperature with 2.5 µM coelenterazine to reconstitute aequorin for 3 h. Calcium-dependent aequorin luminescence was measured in 10 biological replicates each containing 20-pairs of tubules. At the end of each experiment, total aequorin was released using 300 µl of lysis buffer (1% (v/v) Triton X-100, 100 mM CaCl2) in order to calculate the total luminescence; and the data were back-integrated using a program written in Perl, based on the method described by Button and Eidsath [90]. Data are presented as the mean (±SEM) and statistical significance was calculated using unpaired t-test.

Compound `CSCC[C@H](NC(=O)[C@@H](NC(=O)[C@H](CC(N)=O)NC(=O)[C@@H](NC(=O)[C@H](CC(=O)O)NC(=O)[C@H](CC(N)=O)NC(=O)[C@H](CCCCN)NC(=O)[C@H](CCCNC(=N)N)NC(=O)[C@@H]1CCCN1C(=O)[C@@H]1CCCN1C(=O)[C@H](CCCNC(=N)N)NC(=O)[C@H](CO)NC(=O)[C@H](CC(N)=O)NC(=O)[C@@H](N)CO)C(C)C)[C@@H](C)O)C(=O)N[C@@H](C)C(=O)N[C@@H](CC(=O)O)C(=O)N[C@@H](C)C(=O)N[C@@H](Cc1ccc(O)cc1)C(=O)N[C@@H](CCCCN)C(=O)N[C@@H](Cc1ccccc1)C(=O)N[C@@H](CC(C)C)C(=O)N[C@@H](CCC(N)=O)C(=O)N[C@@H](CC(=O)O)C(=O)N[C@@H](CC(C)C)C(=O)N[C@@H](CC(=O)O)C(=O)N[C@H](C(=O)N[C@@H](Cc1ccc(O)cc1)C(=O)N[C@@H](Cc1ccc(O)cc1)C(=O)NCC(=O)N[C@@H](CC(=O)O)C(=O)N[C@@H](CCCNC(=N)N)C(=O)N[C@@H](C)C(=O)N[C@@H](CCCNC(=N)N)C(=O)N[C@H](C(=O)N[C@@H](CCCNC(=N)N)C(=O)N[C@@H](Cc1ccccc1)C(N)=O)C(C)C)[C@@H](C)O` [NPF, neuropeptide F] (H-SNSRPPRKNDVNTMADAYKFLQDLDTYYGDRARVRF-NH2) gave an EC50 in the assay on male Malpighian tubules of 6 nM.
Take “AQRSPSLRLRF-NH2 [sNPF, short neuropeptide F, distantly related peptide, the so called short neuropeptide F; synthesised by Biomatik]”: the Resting fluid secretion result in the assay with male tubules is “inhibits fluid secretion in male; also recorded: inhibits resting fluid secretion”; in the assay with female tubules it was “not female; also recorded: only of male tubules”.
Turning to “AWQSLQSSW-NH2 [allatostatin-B, the Drosophila MIP, allatostatin-B]”, the “Sensitivity of Drosophila SPR relative to SP” value in the assay with Drosophila SPR is 10 x.
As for “Sex peptide: transferred with the sperm to the female (WEWPWNRKPTKFPIPSPNPRDKWCRLNLGPAWGGRC; ends and bridges not checked; cysteine pairing not given here; UniProt P05623 20-55, looked up)”, in the assay with female, the “Change in female physiology and behaviour” value is on record as “a reduction in receptivity to subsequent matings”.
On to “leucokinin: diuretic neuropeptide leucokinin, which acts through intracellular calcium (NSVVLGKKQRFHSWG; ends and bridges not checked; UniProt P81829 133-147, looked up)”, for which the “Action on right and left tubules” value in the assay on right and left tubules was “acts equally on both right and left tubules”.

The EC50 is the concentration at which the effect is half-maximal. Low readings indicate greater potency, high ones weaker potency.
